The NIST ThermoML archive (doi:10.1016/j.jct.2014.02.016)
± gives the expanded uncertainty stated by the source.

Tests used:
[1] = refractive index (other wavelength) (dimensionless); xn = mol fraction of the nth substance listed; conditions: 100 kPa, Liquid, Wavelength=632.8 nm, Angle minimization by sell rotation
[2] = heat capacity at constant pressure per volume; xn = mol fraction of the nth substance listed; conditions: 100 kPa, Liquid, DSC Calorimetry, x1 = 0.284

CCCCCCCCCCC [undecane] + COC(=O)OC
[1]
Conditions | refractive index
283.01 K, x1 = 0.087 | 1.3791 ± 0.0003
283.01 K, x1 = 0.62 | 1.4074 ± 0.0003
284.23 K, x1 = 0.094 | 1.3791 ± 0.0003
284.23 K, x1 = 0.602 | 1.4062 ± 0.0003
285.47 K, x1 = 0.102 | 1.3791 ± 0.0003
285.47 K, x1 = 0.58 | 1.4048 ± 0.0003
286.63 K, x1 = 0.11 | 1.3791 ± 0.0003
286.63 K, x1 = 0.56 | 1.4035 ± 0.0003
287.73 K, x1 = 0.118 | 1.3792 ± 0.0003
287.73 K, x1 = 0.539 | 1.4022 ± 0.0003
288.79 K, x1 = 0.129 | 1.3795 ± 0.0003
288.79 K, x1 = 0.515 | 1.4008 ± 0.0003
289.51 K, x1 = 0.137 | 1.3797 ± 0.0003
289.51 K, x1 = 0.496 | 1.3997 ± 0.0003
290.19 K, x1 = 0.147 | 1.3801 ± 0.0003
290.19 K, x1 = 0.475 | 1.3985 ± 0.0003
290.77 K, x1 = 0.157 | 1.3805 ± 0.0003
290.77 K, x1 = 0.46 | 1.3976 ± 0.0003
291.19 K, x1 = 0.165 | 1.3809 ± 0.0003
291.19 K, x1 = 0.442 | 1.3966 ± 0.0003
291.49 K, x1 = 0.173 | 1.3813 ± 0.0003
291.49 K, x1 = 0.431 | 1.396 ± 0.0003
291.71 K, x1 = 0.179 | 1.3816 ± 0.0003
291.71 K, x1 = 0.418 | 1.3953 ± 0.0003
291.9 K, x1 = 0.186 | 1.382 ± 0.0003
291.9 K, x1 = 0.409 | 1.3948 ± 0.0003
292.05 K, x1 = 0.193 | 1.3824 ± 0.0003
292.05 K, x1 = 0.398 | 1.3942 ± 0.0003
292.17 K, x1 = 0.198 | 1.3827 ± 0.0003
292.17 K, x1 = 0.391 | 1.3938 ± 0.0003
292.25 K, x1 = 0.202 | 1.3829 ± 0.0003
292.25 K, x1 = 0.383 | 1.3934 ± 0.0003
292.33 K, x1 = 0.207 | 1.3832 ± 0.0003
292.33 K, x1 = 0.376 | 1.393 ± 0.0003
292.39 K, x1 = 0.212 | 1.3835 ± 0.0003
292.39 K, x1 = 0.371 | 1.3927 ± 0.0003
292.44 K, x1 = 0.217 | 1.3838 ± 0.0003
292.44 K, x1 = 0.365 | 1.3924 ± 0.0003
292.49 K, x1 = 0.22 | 1.384 ± 0.0003
292.49 K, x1 = 0.36 | 1.3921 ± 0.0003
292.52 K, x1 = 0.225 | 1.3843 ± 0.0003
292.52 K, x1 = 0.352 | 1.3917 ± 0.0003
292.56 K, x1 = 0.228 | 1.3845 ± 0.0003
292.56 K, x1 = 0.349 | 1.3915 ± 0.0003
292.59 K, x1 = 0.235 | 1.3849 ± 0.0003
292.59 K, x1 = 0.341 | 1.3911 ± 0.0003
292.62 K, x1 = 0.238 | 1.3851 ± 0.0003
292.62 K, x1 = 0.336 | 1.3908 ± 0.0003
292.64 K, x1 = 0.243 | 1.3854 ± 0.0003
292.64 K, x1 = 0.331 | 1.3905 ± 0.0003
292.65 K, x1 = 0.246 | 1.3856 ± 0.0003
292.65 K, x1 = 0.327 | 1.3903 ± 0.0003
292.66 K, x1 = 0.251 | 1.3859 ± 0.0003
292.66 K, x1 = 0.322 | 1.39 ± 0.0003
292.67 K, x1 = 0.255 | 1.3861 ± 0.0003
292.67 K, x1 = 0.258 | 1.3863 ± 0.0003
292.67 K, x1 = 0.314 | 1.3896 ± 0.0003
292.67 K, x1 = 0.318 | 1.3898 ± 0.0003
292.68 K, x1 = 0.261 | 1.3865 ± 0.0003
292.68 K, x1 = 0.263 | 1.3866 ± 0.0003
292.68 K, x1 = 0.266 | 1.3868 ± 0.0003
292.68 K, x1 = 0.304 | 1.389 ± 0.0003
292.68 K, x1 = 0.307 | 1.3892 ± 0.0003
292.68 K, x1 = 0.311 | 1.3894 ± 0.0003
303.3 K, x1 = 0.102 | 1.3708 ± 0.0003
303.3 K, x1 = 0.2 | 1.3776 ± 0.0003
303.3 K, x1 = 0.299 | 1.3835 ± 0.0003
303.3 K, x1 = 0.388 | 1.3891 ± 0.0003
303.3 K, x1 = 0.5 | 1.3932 ± 0.0003
303.3 K, x1 = 0.586 | 1.3967 ± 0.0003
303.3 K, x1 = 0.701 | 1.4014 ± 0.0003
303.3 K, x1 = 0.793 | 1.4041 ± 0.0003
303.3 K, x1 = 0.905 | 1.4085 ± 0.0003

[2]
Conditions | heat capacity [J/K/m3]
293.3 K | 2050000 ± 110000
293.4 K | 2009000 ± 110000
293.5 K | 1982000 ± 110000
293.6 K | 1953000 ± 100000
293.8 K | 1939000 ± 100000
294 K | 1925000 ± 100000
294.5 K | 1897000 ± 100000
296 K | 1878000 ± 100000
297 K | 1848000 ± 99000
298 K | 1846000 ± 99000
299 K | 1832000 ± 98000
300 K | 1824000 ± 97000
301 K | 1822000 ± 97000
302 K | 1818000 ± 97000
303 K | 1818000 ± 97000
304 K | 1814000 ± 97000
305 K | 1810000 ± 97000
306 K | 1806000 ± 96000
307 K | 1805000 ± 96000
308 K | 1803000 ± 96000
309 K | 1801000 ± 96000
310 K | 1800000 ± 96000
311 K | 1797000 ± 96000
312 K | 1796000 ± 96000
313 K | 1795000 ± 96000
314 K | 1793000 ± 96000
315 K | 1792000 ± 96000
316 K | 1790000 ± 96000
317 K | 1789000 ± 96000
318 K | 1788000 ± 95000
319 K | 1787000 ± 95000
320.01 K | 1787000 ± 95000
321 K | 1786000 ± 95000
322 K | 1785000 ± 95000
323 K | 1784000 ± 95000
324.01 K | 1783000 ± 95000
325 K | 1782000 ± 95000
326 K | 1782000 ± 95000
327 K | 1780000 ± 95000
328.01 K | 1780000 ± 95000
329 K | 1780000 ± 95000
330 K | 1779000 ± 95000
331 K | 1778000 ± 95000
332 K | 1778000 ± 95000
333 K | 1777000 ± 95000
